Assays:
[1] = system: KRAS-G12D mutated human colon carcinoma cells GP2d; experiment: Antitumor effect, subcutaneous xenograft of KRAS-G12D mutated human colon carcinoma cells GP2d; assay type: in vivo; settings: BALB/c nude mice, 10 mg/kg, gavage, twice a day
Method: GP2d cells were purchased from Nanjing Kebai Biotechnology Co., Ltd. BALB/c nude mice, female, were purchased from Jiangsu GemPharmatech LLC. GP2d cells were cultured in culture medium containing DMEM and 10% FBS. The cells in the logarithmic growth phase were collected and resuspended in PBS to an appropriate concentration for subcutaneous tumor inoculation in mice. The experimental mice were subcutaneously inoculated on the right posterior side of the back. The inoculation dose of GP2d cells was 1×10^7 cells per mouse, and the cells were resuspended in a 1:1 mixture of PBS and Matrigel (the inoculation volume was 0.1 mL). When the average tumor volume grew to 150 mm^3, the mice were randomly grouped for administration according to the tumor size and body weight. Administration was started immediately after grouping, and the day of administration was regarded as day 0. The administration was carried out twice a day by gavage, at a dose of 10 mg/kg or a solvent control (0.5% Tween 80+99.5% of (0.5% MC (400 cp))). During the experiment, the body weight of the mice and the size of the tumors were measured twice a week.
The formula for calculating the tumor size: Tumor volume (mm^3)=0.5×(long diameter of tumor×(short diameter of tumor)^2).
Relative tumor inhibition rate TGI (%): TGI %=[1−(average tumor volume at the end of administration of the treatment group−average tumor volume at the beginning of administration of the treatment group)/(average tumor volume at the end of administration of the vehicle control group −average tumor volume at the beginning of administration of the vehicle control group)]×100%.

GP2D cells = experiment: 3D proliferation inhibition of KRAS G12D mutated tumor cells, GP2D; assay type: cell-based, human; settings: Homo sapiens, GP2d, 3D methylcellulose culture, CTG, 120 hours
Excerpt: (§1) This experiment evaluated and verified the proliferation inhibitory activity of the representative compounds of the present invention against the following five strains of KRAS-related tumor cells.
(§2) The following materials, reagents and instruments were used in this experiment: Five strains of cells were all from Nanjing Kebai Biotechnology Co., Ltd. (GP2D, CBP60010; HPAC, CBP60539; AsPC-1, CBP60546; KP-4, CBP60541; Panc 04.03, CBP60683); DMEM (Gibco, 11965092); RPMI-1640 (Gibco, SH30809.01); HPAC complete medium (Cobioer, CBP60539M); Fetal bovine serum FBS (Gibco, 10091-148); Insulin (Gibco, 41400045); Methylcellulose (methylcellulose, Sigma, 9004-67-5); Phosphate-buffered saline DPBS (Comning, 21-031-CVC); CellTiter-Glo® Luminescent Cell Viability Assay (Promega, Cat #G7573); 96-well clear flat-bottom black-wall plate (Corning, 3603); EnVision multilabel plate reader (PerkinElmer #2105); CO2 incubator (Thermo Scientific, Model 3 71 Series).
(§3) A sterilized 1% methylcellulose 3D culture medium was prepared in advance. The cells in the logarithmic growth phase were harvested, and a Countstar automatic cell counter based on the principle of the classic trypan blue staining method was used for cell counting and detecting cell viability to ensure that the cell viability was above 90%. The cell concentrations of GP2D, HPAC, AsPC-1, KP-f4, and Panc 04.03 were adjusted so that the final concentration of methylcellulose was 0.65%, and the mixture was allowed to stand after being well-mixed. After there were no visible air bubbles in the cell suspension, 80 μL of the cell suspension was added to each well of a 96-well plate, with a total of 1000-2000 cells. The cells in the 96-well plate were cultured overnight at 37° C., 5% CO2, and 95% humidity.
(§4) Drug Preparation for IC50 Determination: First, a 10 mM DMSO stock solution of each compound was prepared. For the first dilution, using DMSO as the solvent, each compound was first diluted to 5 mM and then serially diluted 3-fold to obtain 9 concentrations, preparing DMSO solutions of each compound at different concentrations. For the second dilution, a 5-fold diluted solution of each compound was prepared by a 1:100 dilution, using the complete medium as the solvent. […]
(§5) The cells in the 96-well plate with the added drugs were further cultured at 37° C. and 5% CO2 for 120 hours, and then a CTG analysis was performed. […] The cell plate was placed at room temperature for 20 minutes to stabilize the luminescence signal. The luminescence value was read, and the data were collected.
(§6) The data were analyzed using GraphPad Prism 9.0 software. Non-linear S-curve regression was used to fit the data to obtain the dose-response curve, and the IC50 value (nM) was calculated accordingly. […]

HPAC cells = experiment: 3D proliferation inhibition of KRAS G12D mutated tumor cells, HPAC; assay type: cell-based, human; settings: Homo sapiens, HPAC, 3D methylcellulose culture, CTG, 120 hours
Excerpt: as §1, §2, §3, §4, §5, §6

AsPC-1 cells = experiment: 3D proliferation inhibition of KRAS G12D mutated tumor cells, AsPC-1; assay type: cell-based; settings: Homo sapiens, ASPC1, 3D methylcellulose culture, CTG, 120 hours
Excerpt: as §1, §2
as §3, with “After there were no visible air bubbles in the cell suspension, 80 μL of the cell suspension was added to each well of a 96-well plate, with a total of 1000-2000 cells. The cells in the 96-well plate were cultured overnight at 37° C., 5% CO2, and 95% humidity.” left out
as §5, §6

KP-4 cells = experiment: 3D proliferation inhibition of KRAS G12D mutated tumor cells, KP-4; assay type: cell-based; settings: Homo sapiens, KP-4, 3D methylcellulose culture, CTG, 120 hours
Excerpt: as §1, §2, §3, §4, §5, §6

Panc 04.03 cells = experiment: 3D proliferation inhibition of KRAS G12D mutated tumor cells, Panc 04.03; assay type: cell-based; settings: Homo sapiens, Panc 04.03, 3D methylcellulose culture, CTG, 120 hours
Excerpt: as §1, §2, §3, §4, §5, §6

[2] = system: KRAS G12D mutated AGS human gastric adenocarcinoma cells; experiment: Proliferation inhibition of KRAS G12D mutant AGS cells, another experiment with similar protocol (includes MRTX1133); assay type: cell-based; settings: Homo sapiens
Method: In another experiment, using a protocol similar to the one described above, the inhibitory activity of some representative compounds of the present invention against KRAS G12D mutated AGS human gastric adenocarcinoma cells was determined.
The synthesis of compound MRTX1133 was performed according to the method described in J. Med. Chem. 2022, 65, 4, 3123-3133.

[3] = Mouse pharmacokinetics (IV and PO); assay type: in vivo; settings: 10 mg/kg, male CD-1 mice, PO (gavage), 1 mg/mL at 10 mL/kg, plasma
Method: The pharmacokinetic properties of the compounds of the present invention were evaluated through a mouse pharmacokinetic experiment.
Male CD-1 mice, aged 6-8 weeks old, were purchased from Zhejiang Vital River Laboratory Animal Co., Ltd.
IV administration group: The compound was formulated into a sodium acetate buffer solution (10 mM sodium acetate solution, adjusted to pH 4.0 with acetic acid) containing 20% Captisol (sulfobutyl β-cyclodextrin) so that the final concentration of each compound was 0.6 mg/mL. The drug formulation was injected into the tail vein of CD-1 mice at an injection volume of 5 mL/kg. After administration, blood samples were collected from the submandibular vein or by other appropriate methods at 5 min, 15 min, 30 min, 1 h, 2 h, 4 h, 6 h, 8 h, and 24 h. The blood samples were centrifuged at a low temperature for 6 minutes, and the plasma was collected and stored at −80° C. for testing. The PO administration group formulated the compound into a solvent of 0.5% Tween 80+99.5% (0.5% MC (400 cp)) or 5% DMSO+95% (0.5% MC (400 cp)) so that the final concentration of each compound was 1 mg/mL. The drug formulation was administered to CD-1 mice by gavage at a volume of 10 mL/kg. After administration, blood samples were collected from the submandibular vein or by other appropriate methods at 15 min, 30 min, 1 h, 2 h, 4 h, 6 h, 8 h, and 24 h. The blood samples were centrifuged at a low temperature for 6 minutes, and the plasma was collected and stored at −80° C. for testing.
10 μL of the plasma sample was taken, and 200 μL of methanol containing an internal standard was added as a precipitating agent to precipitate plasma proteins and extract the compounds to be tested in the plasma. After centrifugation at a low temperature, 10 μL of the supernatant was injected, and the drug blood concentration was analyzed by LC-MS/MS. The pharmacokinetic parameters were calculated using Winnonlin based on the drug concentration data at different time points.

[4] = system: human pancreatic cancer cells HPAC (carrying KRas G12D mutant protein); experiment: In vivo pharmacodynamics, subcutaneous xenograft of human pancreatic cancer cells HPAC; settings: NOD/SCID mice, 50 mpk, PO
Method: The following materials were used in this experiment: NOD/SCID mice, 6-8 weeks old, female, Jiangsu Ji Cai Yao Kang Biotechnology Co., Ltd.; HPAC cells (carrying KRas G12D mutant protein, ATCC); Captisol (Wuhan Fengyao Tonghui Chemical Products Co., Ltd., Cas #182410-00-0); Sodium acetate (aladdin); MC (sigma, 9004-67-5).
The experiment was carried out as follows: Female NOD/SCID mice aged 6-8 weeks were subcutaneously inoculated with 1-10^7 HPAC cells on the right posterior side of the back, with an inoculation volume of 0.1 mL. When the tumors grew to an average volume of 150 mm^3, the mice were randomly grouped for administration according to the tumor size and body weight. The day of administration was regarded as day 0. The administration was carried out once a day. The test compound was administered by tail vein injection or gavage, with 5 mice in each group at a dose of 10 mg/kg. The control group was administered with an equal volume of the solvent control by tail vein injection or gavage.
During the experiment, the tumor volume and body weight were measured twice a week. The formula for calculating the tumor volume was: Tumor volume (mm^3)=0.5×(tumor major axis×tumor minor axis^2). The average tumor inhibition rate TGI %=[(average tumor volume of the control group−average initial tumor volume of the control group)−(average tumor volume of the administration group−average initial tumor volume of the administration group)]/(average tumor volume of the control group−average initial tumor volume of the control group).

[2H]C([2H])([2H])N1CC[C@H](C(F)F)[C@](C)(C([2H])([2H])Oc2nc(N3CC4CCC(C3)N4)c3cc(C(F)(F)F)c(-c4cccc5sc(N)c(C#N)c45)c(F)c3n2)C1 (single isomer, unassigned) [Example 321-1]
Tumor volume (mm3) (Day 21) [1]: 70 mm3 | TGI (%) ([1]; Day 21): 109% | IC50 (GP2D cells): 0.43 nM | IC50 (HPAC cells): 5.38 nM | IC50 (AsPC-1 cells): 1.38 nM | IC50 (KP-4 cells): 4.74 nM | IC50 (Panc 04.03 cells): 1.36 nM

C#Cc1c(F)ccc2cc(O)cc(-c3ncc4c(N5C[C@H]6CC[C@@H](C5)N6)nc(OC[C@]5(C)CN(C)CC/C5=C\F)nc4c3F)c12 [Example 103, 4-(4-((1R,5S)-3,8-diazabicyclo[3.2.1]octan-3-yl)-8-fluoro-2-(((S,E)-4-(fluoromethylene)-1,3-dimethylpiperidin-3-yl)methoxy)pyrido[4,3-d]pyrimidin-7-yl)-5-ethynyl-6-fluoronaphthalen-2-ol]
IC50 [2]: 4 nM | AUC(0-inf) [3]: 704 ng·h/mL | AUC(0-t) [3]: 653 ng·h/mL | half-life [3]: 8.15 h | Tumor volume (mm3) (Day 20) ([4]; BID × 21): 77 mm3 | TGI (%) ([4]; BID × 21, Day 20): 112% | IC50 (GP2D cells): 0.42 nM | IC50 (HPAC cells): 1.44 nM | IC50 (AsPC-1 cells): 2.09 nM | IC50 (KP-4 cells): 6.92 nM | IC50 (Panc 04.03 cells): 2.12 nM

Source: US20260176284A1, “Compounds with Anti-KRAS Mutated Tumor Activity” (Trasveda Ltd., priority 2022, published 2026)
